Test results from article PMC11794875, “Molecular basis for azetidine-2-carboxylic acid biosynthesis” (Nature Communications, 2025).
Like-named read-outs stand apart in the source and are kept apart here.

Legend:
AzeJ [1] = biological target: T1, AzeJ (Pseudomonas aeruginosa, UniProt Q9HYR0); test: X-ray crystal structure, […] Å; type: binding; conditions: co-crystallised with 2 mM SAM, pH 7.0 or 7.2, formed in crystal, active site
T1 construct: gene PA3335; N-terminal His6-SUMO fusion in pETDuet, codon-optimised, SUMO tag cleaved by Ulp1; E. coli BL21 Gold (DE3); homodimer

AzeJ [2] = biological target: T1, AzeJ; type: binding; conditions: 100 mM Tris-HCl, pH 8.0, 10 µM protein
VioH = biological target: T2, VioH (Archangium violaceum, UniProt Z9G018KSM0); test: in vitro AZE synthase activity assay, HPLC; type: biochemical; conditions: without VioG partner
T2 construct: N-terminal His6-SUMO fusion in pETDuet, codon-optimised, SUMO tag cleaved by Ulp1; E. coli BL21 Gold (DE3); monomer
T2 sequence (Z9G018KSM0 1-236): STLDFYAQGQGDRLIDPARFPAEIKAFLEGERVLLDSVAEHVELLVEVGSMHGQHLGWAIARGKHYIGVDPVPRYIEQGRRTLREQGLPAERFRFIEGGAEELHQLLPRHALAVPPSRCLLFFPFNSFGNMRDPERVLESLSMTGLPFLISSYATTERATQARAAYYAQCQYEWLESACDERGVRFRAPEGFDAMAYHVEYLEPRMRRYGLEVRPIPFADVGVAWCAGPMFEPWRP

T1 sequence (Q9HYR0 entry or part of it): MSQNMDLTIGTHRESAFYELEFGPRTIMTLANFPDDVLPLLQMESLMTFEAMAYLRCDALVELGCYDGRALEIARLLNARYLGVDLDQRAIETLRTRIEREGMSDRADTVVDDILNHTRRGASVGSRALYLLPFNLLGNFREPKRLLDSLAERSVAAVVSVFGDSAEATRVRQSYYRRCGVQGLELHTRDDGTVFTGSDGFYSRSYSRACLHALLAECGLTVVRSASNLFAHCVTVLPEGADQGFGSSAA

With `O=C(O)[C@@H]1CCN1` [AZE, azetidine-2-carboxylic acid] the “X-ray crystal structure, 1.95 Å” value (AzeJ [1]; with MTA) was “Fo-Fc electron density maps reveal that MTA and AZE are bound to the active site”.
`CSC[C@H]1O[C@@H](n2cnc3c(N)ncnc32)[C@H](O)[C@@H]1O` [MTA, 5′-methylthioadenosine] was tested, and the “X-ray crystal structure, 1.95 Å” value (AzeJ [1]; with AZE) was “Fo-Fc electron density maps reveal that MTA and AZE are bound to the active site”.
For `Nc1ncnc2c1ncn2[C@@H]1O[C@H](CSCC[C@H](N)C(=O)O)[C@@H](O)[C@H]1O` [SAH, S-adenosyl-L-homocysteine], the dTm (AzeJ [2]; 0–1 mM SAH) was “In the presence of SAM or SAH, the melting temperature of AzeJ increased”.
For `C[S+](CC[C@H](N)C(=O)O)C[C@H]1O[C@@H](n2cnc3c(N)ncnc32)[C@H](O)[C@@H]1O` (some centres unmarked) [SAM, S-adenosylmethionine], the dTm (AzeJ [2]; 0–1 mM SAM) was “In the presence of SAM or SAH, the melting temperature of AzeJ increased” and the “in vitro AZE synthase activity assay, HPLC” value (VioH) was “in vitro observation that VioH alone had minimal catalytic activity (Fig. S8)”.
